Assay results published in the NIST ThermoML archive (doi:10.1016/j.jct.2012.03.027).

How the values were obtained:
[1] = molar heat capacity at constant pressure; conditions: 298.15 K, 101.33 kPa, Drop calorimetry
[2] = for vapor or sublimation pressure: Closed cell (Static) method; for Triple point temperature: DTA
[3] = Molar enthalpy of transition or fusion; conditions: Crystal; DSC

OCC(F)(F)C(F)(F)C(F)(F)C(F)(F)C(F)(F)C(F)(F)F [2,2,3,3,4,4,5,5,6,6,7,7,7-tridecafluoro-1-heptanol]
Conditions	molar heat capacity at constant pressure [J/K/mol]
[1], Liquid	476.8

[2], Liquid
Conditions	vapor or sublimation pressure [kPa]
275.55 K	0.01786
278.02 K	0.02308
280.53 K	0.03001
282.99 K	0.03804
285.49 K	0.04858
287.97 K	0.06227
290.46 K	0.07837
292.95 K	0.09912
295.45 K	0.1247
297.97 K	0.1587
300.43 K	0.1946
302.94 K	0.2431
305.4 K	0.294
307.91 K	0.3632
310.39 K	0.4344
312.88 K	0.5339
315.35 K	0.6248
317.87 K	0.7553

OCC(F)(F)C(F)(F)C(F)(F)C(F)(F)C(F)(F)C(F)(F)C(F)(F)C(F)(F)F [2,2,3,3,4,4,5,5,6,6,7,7,8,8,9,9,9-heptadecafluoro-1-nonanol]
Conditions	Molar enthalpy of transition or fusion [kJ/mol]
[3]	16.6

[2]
Conditions	vapor or sublimation pressure [kPa]
275.71 K, Crystal	0.00048
278.17 K, Crystal	0.00067
283.16 K, Crystal	0.00128
288.15 K, Crystal	0.0025
293.14 K, Crystal	0.00477
298.11 K, Crystal	0.00866
303.13 K, Crystal	0.01568
308.1 K, Crystal	0.02727
313.09 K, Crystal	0.04767
318.06 K, Crystal	0.07933
323.03 K, Crystal	0.13
342.99 K, Liquid	0.8017
344 K, Liquid	0.8571
345.48 K, Liquid	0.9447
347.97 K, Liquid	1.11
350.45 K, Liquid	1.3
351.45 K, Liquid	1.383

Conditions	Triple point temperature [K]
[2], Crystal	342.2

OCC(F)(F)C(F)(F)C(F)(F)C(F)(F)C(F)(F)C(F)(F)C(F)(F)C(F)(F)C(F)(F)F [1H,1H-perfluoro-1-decanol]
Conditions	Molar enthalpy of transition or fusion [kJ/mol]
[3]	15.9

[2], Crystal
Conditions	vapor or sublimation pressure [kPa]
303.92 K	0.00452
308 K	0.00755
312.98 K	0.01315
318.07 K	0.02289
323.07 K	0.03765
327.88 K	0.06457
332.84 K	0.1045
337.79 K	0.1714
342.75 K	0.2677
347.71 K	0.414
352.65 K	0.6247
355.65 K	0.8008
358.15 K	0.97

Conditions	Triple point temperature [K]
[2], Crystal	358.5

OCC(F)(F)C(F)(F)C(F)(F)C(F)(F)C(F)(F)C(F)(F)C(F)(F)C(F)(F)C(F)(F)C(F)(F)F [1H,1H-perfluoroundecan-1-ol]
Conditions	Molar enthalpy of transition or fusion [kJ/mol]
[3]	22.4

[2], Crystal
Conditions	vapor or sublimation pressure [kPa]
310.53 K	0.00219
313.02 K	0.00299
315.51 K	0.00402
318 K	0.00537
320.48 K	0.00715
323 K	0.00968
325.47 K	0.01321
327.95 K	0.01724
330.42 K	0.02207
332.87 K	0.02909
335.42 K	0.03815
337.85 K	0.04977
340.35 K	0.06415
342.81 K	0.08275
345.3 K	0.1064
347.8 K	0.1361

Conditions	Triple point temperature [K]
[2], Crystal	374

OCC(F)(F)C(F)(F)C(F)(F)C(F)(F)C(F)(F)C(F)(F)C(F)(F)F [2,2,3,3,4,4,5,5,6,6,7,7,8,8,8-pentadecafluoro-1-octanol]
Crystal
Conditions	Triple point temperature [K]	molar heat capacity at constant pressure [J/K/mol]
[1]	–	468.6
[2]	318.2	–

Conditions	Molar enthalpy of transition or fusion [kJ/mol]
[3]	11.9

[2]
Conditions	vapor or sublimation pressure [kPa]
268.27 K, Crystal	0.00104
273.24 K, Crystal	0.00201
278.21 K, Crystal	0.00388
283.17 K, Crystal	0.00714
288.15 K, Crystal	0.01272
293.15 K, Crystal	0.02273
295.64 K, Crystal	0.03033
298.14 K, Crystal	0.03911
300.61 K, Crystal	0.05177
303.13 K, Crystal	0.06648
305.62 K, Crystal	0.08724
308.1 K, Crystal	0.1113
310.56 K, Crystal	0.1412
313.08 K, Crystal	0.1815
315.52 K, Crystal	0.2288
318.05 K, Crystal	0.2936
320.52 K, Liquid	0.3615
323.01 K, Liquid	0.4351
325.52 K, Liquid	0.524
328.01 K, Liquid	0.6236
330.49 K, Liquid	0.7457
332.97 K, Liquid	0.871
335.47 K, Liquid	1.048
337.97 K, Liquid	1.233
339.44 K, Liquid	1.359
